Measurements published in ChEMBL document CHEMBL1156829 (Proc Natl Acad Sci U S A, 2008).

How the values were obtained:
[1] = NOVARTIS: Cytotoxicity against human hepatocellular carcinoma cell line (Huh7); type: toxicity, cell-based, Huh-7; conditions: Huh7 cells (hepatocellular carcinoma cell line)
Plasmodium falciparum [2] = assay: NOVARTIS: Inhibition of Plasmodium falciparum 3D7 (drug-susceptible) proliferation in erythrocyte-based infection assay; type: functional, organism-based; conditions: Plasmodium falciparum, 3D7
Plasmodium falciparum [3] = assay: NOVARTIS: Inhibition of Plasmodium falciparum W2 (drug-resistant) proliferation in erythrocyte-based infection assay; type: functional, organism-based
[4] = Plasmodium falciparum, W2, read-out: EC50

SMILES | CC50 [1] [nM] | EC50 (Plasmodium falciparum [2]) [nM] | EC50 (Plasmodium falciparum [3]; [4]) [nM] | EC50 (Plasmodium falciparum [3])
O=C(Cn1c2ccccc2c(=O)c2ccccc21)Nc1ccc(Cl)cc1C(=O)c1ccccc1 | > 100000 | 817 | 925 | –
CCOC(=O)C1=C(C)NC2=C(C(=O)CC(c3ccc(OC)c(OC)c3)C2)C1c1ccc(SC)cc1 (configuration not stated) | > 100000 | 302 | 127 | –
CC(C)c1ccc(C=NNC(=O)c2ccccc2O)cc1 | > 10000 | > 1250 | 1680 | –
COC(=O)C1=C(C)NC2=C(C(=O)CC(c3ccc(Cl)cc3)C2)C1c1ccccc1 (configuration not stated) | > 100000 | 342 | 152 | –
Cc1nc(-c2ccccc2)nc(C(=O)N2CCN(C(=O)/C=C/c3ccccc3)C(C)C2)c1C(=O)OC(C)C (configuration not stated) | > 10000 | > 1250 | 621 | –
COc1ccc(C2C(C(=O)NCCN(C)C)c3ccccc3C(=O)N2C2CCCCC2)cc1 (configuration not stated) | > 10000 | > 427 | 1610 | –
Cn1c2ccncc2c2cc([N+](=O)[O-])ccc21 | 31400 | 833 | 938 | –
COc1cc([C@@H]2OC[C@@H]3[C@H]2CO[C@H]3c2cc(OC)c(O[C@@H]3O[C@H](CO)[C@@H](O)[C@H](O)[C@H]3O)c(OC)c2)cc(OC)c1O [ACANTHOSIDE B] | > 10000 | 771 | 388 | –
CCOc1ccc(NC(=O)CSc2nncc(O)n2)cc1 | > 100000 | 859 | 473 | –
CN1CCN(C(=O)c2cccc(-c3nc(-c4ccncc4)cnc3N)c2)CC1 | > 10000 | > 1000 | > 1250 | –
OCCC1CN(Cc2cccc(Cl)c2)CCN1Cc1ccccc1 (configuration not stated) | > 100000 | > 12500 | 1730 | –
CC(C)c1ccc(NC(=O)c2ccc(NCCCN3CCN(c4cccc(Cl)c4)CC3)c([N+](=O)[O-])c2)cc1 | > 100000 | 1630 | 2810 | –
CC(=C(Cl)Cl)/C(Br)=C(\Br)CO | > 10000 | 179 | 59.5 | –
COc1cc2c(cc1OC)C(=NN=C1NC(C)(C)Cc3ccccc31)NC(C)(C)C2 | > 10000 | 1040 | > 1250 | –
COc1ccc(-c2c[n+](Cc3ccc(Cl)c(Cl)c3)c3n2CCC3)cc1 | 49700 | 537 | 858 | –
CCOC(=O)c1c(C)n(-c2ccccc2)c2ccc(OC(=O)c3ccccc3NC(=O)CC)cc12 | > 100000 | 1060 | 1530 | –
O=C(Nc1cc(C(F)(F)F)cc(C(F)(F)F)c1)Nc1ccc(Cl)c(Cl)c1 | 6570 | 814 | 927 | –
Cc1cccc(-c2cc3nc(C)c(C)c(O)n3n2)c1 | > 100000 | > 9720 | 7540 | –
Cc1ccccc1C(=O)N1CCC(n2nccc2NC(=O)CCOc2ccccc2)CC1 | > 100000 | > 12500 | 4450 | –
CCC(C)(C)n1nnnc1C(c1cc2cc(C)cc(C)c2[nH]c1=O)N1CCN(c2ccc(O)cc2)CC1 (configuration not stated) | > 100000 | 2440 | 1070 | –
CCN1c2ccc([N+](=O)[O-])cc2N(CC)C1(C)c1ccccc1 (configuration not stated) | 67600 | 204 | 39.7 | –
CCOc1cccc2c(C)nc(NC(=N)N)nc12 | 56500 | 358 | 1540 | –
COc1ccc(Nc2nc(NN=Cc3cccc([N+](=O)[O-])c3)nc(Nc3ccc([N+](=O)[O-])cc3)n2)cc1 | > 100000 | 406 | 404 | –
CCN(CC)CCNc1nc(/C=C/c2ccc(Cl)cc2)nc2cc3ccccc3cc12 | 5930 | 124 | 90.1 | –
OC1(c2cccc3ccccc23)CCN(Cc2ccccc2)C1 (configuration not stated) | 23100 | 457 | 148 | –

SMILES | CC50 [1] [nM] | EC50 (Plasmodium falciparum [2]) [nM] | EC50 (Plasmodium falciparum [3]; [4]) [nM] | EC50 (Plasmodium falciparum [3])
CCN(CC)CCNc1ncnc2c1[nH]c1ccc(Br)cc12 | 19500 | 288 | 318 | –
Oc1c2c(nc3cc(-c4ccc(-c5ccccc5)cc4)nn13)CCCC2 | > 73800 | 1140 | 1020 | –
CCN(CC)c1nc(Nc2cc(C)ccc2C)nc(Nc2ccccc2O)n1 | > 10000 | 439 | 159 | –
C/C=C(\Cl)C1=CC(=O)[C@]23C[C@H]2[C@@]2(C)CO[C@@]1(O)[C@@]3(O)O2 | > 10000 | 205 | > 1250 | –
O=C(Nc1ccc(-c2nc3cc(-c4nc5ccccc5o4)ccc3[nH]2)cc1)c1ccc([N+](=O)[O-])cc1 | > 10000 | 1050 | 1200 | –
CCN1/C(=C/c2sc3ccc(OC)cc3[n+]2CC)C=Cc2cc(C)ccc21 | > 10000 | 431 | 508 | –
COc1cccc(C2C(C(=O)Nc3ccc(C)cc3C)=C(C)Nc3c(C(=O)Nc4ccccc4)cnn32)c1 (configuration not stated) | > 100000 | 590 | 190 | –
CC(=O)Nc1cccc(-c2cncc(-c3ccc(C(=O)O)cc3)n2)c1 | > 100000 | 1150 | 2250 | –
COc1ccc2nc(C)cc(Nc3ccc(N4CCN(C)CC4)cc3)c2c1 | 7330 | 83.2 | 153 | –
O=C(CSc1ccc2nnc(-c3cccs3)n2n1)Nc1ccccc1 | > 100000 | 1400 | > 3470 | –
c1ccc2c(NC3CCCC3)nc(Nc3ccc4c(c3)OCO4)nc2c1 | 12800 | 525 | 753 | –
CCOC(=O)c1cnc2c(OC)cccc2c1Nc1cccc(C(F)(F)F)c1 | 26000 | 926 | – | No fit
COc1ccc(C(=O)NCCc2ccc(C)cc2)cc1OC1CCN(C(C)=O)CC1 | > 100000 | > 9060 | 2520 | –
O=c1c2c([nH]c3ccccc13)CCCC2 | > 100000 | 628 | 991 | –
CC(C)(C)NCC(O)Cn1c2ccc(I)cc2c2cc(I)ccc21 (configuration not stated) | 6090 | 608 | 64 | –
Cn1nc(C(F)(F)F)c(-c2ccc(F)cc2)c1NC(=O)Nc1ccc(F)cc1 | 23600 | 241 | 254 | –
N/C(=N\C(=O)c1nc(Cl)c(N)nc1N)NCc1ccc(Cl)c(Cl)c1 [3',4' DICHLOROBENZAMIL] | 4590 | 89.6 | 283 | –
Cc1ccc2c(c1)-c1c(ssc1=S)C(C)(C)N2C(=O)c1ccco1 | > 100000 | 276 | 254 | –
CC(C)N(C(=O)Cn1ccc(=N)c2ccccc21)C(C)C | > 100000 | 1240 | 1650 | –
COc1ccc(C2C(C(C)=O)=C(O)C(=O)N2CCCn2ccnc2)c(OC)c1 (configuration not stated) | > 100000 | 4480 | 1110 | –
O=[N+]([O-])c1ccc2nc(NC3CCCCC3)c(NC3CCCCC3)nc2c1 | 14700 | 2490 | 2640 | –
Cc1ccc(N2C(N)=NC(N)=NC2(C)C)cc1 | > 100000 | 19.3 | 430 | –
CCCC(=O)O[C@]1(C(=O)CCl)[C@@H](C)CC2C3CCC4=CC(=O)C=C[C@]4(C)[C@@]3(F)C(=O)C[C@@]21C (some centres not stated) | > 10000 | 1680 | 283 | –
CC(Cc1ccsc1)Nc1nc2nonc2nc1N(C)C (configuration not stated) | > 100000 | 810 | 881 | –
